Measurements from patent US20230017045A1, “PYRIDINE AND PYRIMIDINE CARBOXYLATE HERBICIDES AND METHODS OF USE THEREOF” (Dow AgroSciences LLC, priority 2017, published 2023).

Each compound was assayed on test plant species (assay: Post-emergent herbicidal activity test (greenhouse, foliar spray, visual growth reduction)). Settings: post-emergence, 336 h, ALOMY: blackgrass (Alopecurus myosuroides), 140 g ai/ha, 14 days after application, read-out: Visual Growth Reduction (%) 14 Days After Application, ALOMY.
Type: in vivo
Description: Post-emergent Test: Seeds or nutlets of the desired test plant species were planted in Sun Gro Metro-Mix® 360 planting mixture, which typically has a pH of 6.0 to 6.8 and an organic matter content of about 30 percent, in plastic pots with a surface area of 64 square centimeters. In some aspects, to ensure good germination and healthy plants, a fungicide treatment and/or other chemical or physical treatment was applied. The plants were grown for 7-21 d in a greenhouse with an approximate 15 h photoperiod which was maintained at 23-29° C. during the day and 22-28° C. during the night. Nutrients and water were added on a regular basis and supplemental lighting was provided with overhead metal halide 1000-Watt lamps as necessary. Plants were used for testing when they reached the first or second true leaf stage. A weighed amount, determined by the highest rate to be tested, of each test compound was placed in a 25 mL glass vial and was dissolved in 4 mL of a 97:3 v/v mixture of acetone and DMSO to obtain concentrated stock solutions. […] The concentrated stock solutions obtained were diluted with 20 mL of an aqueous mixture containing acetone, water, isopropyl alcohol, DMSO, […] crop oil concentrate, and X-77 surfactant in a 48.5:39:10:1.5:1.0:0.02 v/v ratio to obtain spray solutions containing the application rate. Compound requirements are based upon a 12 mL application volume at a rate of 187 liters per hectare (L/ha). Formulated compounds were applied to the plant material with an overhead Mandel track sprayer equipped with […] nozzles calibrated to deliver 187 L/ha over an application area of 0.64 square meters at a spray height of 18 inches (43 cm) above the average plant canopy height. Control plants were sprayed in the same manner with the solvent blank. The treated plants and control plants were placed in a greenhouse as described above and watered by subirrigation to prevent wash-off of the test compounds. After 14 d, the condition of the test plants as compared with that of the nontreated and control plants was determined visually and scored on a scale of 0 to 100 percent where 0 corresponds to no injury and 100 corresponds to complete control. In the reporting of the results, Table A: Percent Growth Reduction Conversion Table was used.

Row | Compound | pest or weed control at 140 g/ha
1 | O=C(O)c1nc(-c2ccc(C(F)(F)C(=O)O)cc2Cl)ccc1Cl [F180, 6-(4-(Carboxy-difluoromethyl)-2-chlorophenyl)-3-chloropicolinic acid] | 0 to 29%

Same assay, conditions: post-emergence, 336 h, AMARE: redroot pigweed (Amaranthus retroflexus), 140 g ai/ha, 14 days after application, read-out: Visual Growth Reduction (%) 14 Days After Application, AMARE

Row | Compound | pest or weed control at 140 g/ha
2 | O=C(O)c1nc(-c2ccc(C(F)(F)C(=O)O)cc2Cl)ccc1Cl [F180, 6-(4-(Carboxy-difluoromethyl)-2-chlorophenyl)-3-chloropicolinic acid] | 0 to 29%

Same assay, conditions: post-emergence, 336 h, AVEFA: wild oat (Avena fatua), 140 g ai/ha, 14 days after application, read-out: Visual Growth Reduction (%) 14 Days After Application, AVEFA

Row | Compound | pest or weed control at 140 g/ha
3 | O=C(O)c1nc(-c2ccc(C(F)(F)C(=O)O)cc2Cl)ccc1Cl [F180, 6-(4-(Carboxy-difluoromethyl)-2-chlorophenyl)-3-chloropicolinic acid] | 0 to 29%

Same assay, conditions: post-emergence, 336 h, CHEAL: lambsquarters (Chenopodium album), 140 g ai/ha, 14 days after application, read-out: Visual Growth Reduction (%) 14 Days After Application, CHEAL

Row | Compound | pest or weed control at 140 g/ha
4 | O=C(O)c1nc(-c2ccc(C(F)(F)C(=O)O)cc2Cl)ccc1Cl [F180, 6-(4-(Carboxy-difluoromethyl)-2-chlorophenyl)-3-chloropicolinic acid] | 0 to 29%

Same assay, conditions: post-emergence, 336 h, CIRAR: canada thistle (Cirsium arvense), 140 g ai/ha, 14 days after application, read-out: Visual Growth Reduction (%) 14 Days After Application, CIRAR

Row | Compound | pest or weed control at 140 g/ha
5 | O=C(O)c1nc(-c2ccc(C(F)(F)C(=O)O)cc2Cl)ccc1Cl [F180, 6-(4-(Carboxy-difluoromethyl)-2-chlorophenyl)-3-chloropicolinic acid] | 0 to 29%

Same assay, conditions: post-emergence, 336 h, CYPES: yellow nutsedge (Cyperus esculentus), 140 g ai/ha, 14 days after application, read-out: Visual Growth Reduction (%) 14 Days After Application, CYPES

Row | Compound | pest or weed control at 140 g/ha
6 | O=C(O)c1nc(-c2ccc(C(F)(F)C(=O)O)cc2Cl)ccc1Cl [F180, 6-(4-(Carboxy-difluoromethyl)-2-chlorophenyl)-3-chloropicolinic acid] | 0 to 29%

Same assay, conditions: post-emergence, 336 h, DIGSA: crabgrass (Digitaria sanguinalis), 140 g ai/ha, 14 days after application, read-out: Visual Growth Reduction (%) 14 Days After Application, DIGSA

Row | Compound | pest or weed control at 140 g/ha
7 | O=C(O)c1nc(-c2ccc(C(F)(F)C(=O)O)cc2Cl)ccc1Cl [F180, 6-(4-(Carboxy-difluoromethyl)-2-chlorophenyl)-3-chloropicolinic acid] | 0 to 29%

Same assay, conditions: post-emergence, 336 h, ECHCG: barnyardgrass (Echinochloa crus-galli), 140 g ai/ha, 14 days after application, read-out: Visual Growth Reduction (%) 14 Days After Application, ECHCG

Row | Compound | pest or weed control at 140 g/ha
8 | COC(=O)c1nc(-c2ccc(I)cc2F)c(F)cc1Cl [F328, methyl 3-chloro-5-fluoro-6-(2-fluoro-4-iodophenyl)picolinate] | 0 to 29%
9 | O=C(O)c1nc(-c2ccc(C(F)(F)C(=O)O)cc2Cl)ccc1Cl [F180, 6-(4-(Carboxy-difluoromethyl)-2-chlorophenyl)-3-chloropicolinic acid] | 0 to 29%

Same assay, conditions: post-emergence, 336 h, IPOHE: ivy-leaf morning glory (Ipomoea hederacea), 140 g ai/ha, 14 days after application, read-out: Visual Growth Reduction (%) 14 Days After Application, IPOHE

Row | Compound | pest or weed control at 140 g/ha
10 | COC(=O)c1nc(-c2ccc(I)cc2F)c(F)cc1Cl [F328, methyl 3-chloro-5-fluoro-6-(2-fluoro-4-iodophenyl)picolinate] | 85 to 94%
11 | O=C(O)c1nc(-c2ccc(C(F)(F)C(=O)O)cc2Cl)ccc1Cl [F180, 6-(4-(Carboxy-difluoromethyl)-2-chlorophenyl)-3-chloropicolinic acid] | 0 to 29%

Same assay, conditions: post-emergence, 336 h, KCHSC: kochia (Bassia scoparia), 140 g ai/ha, 14 days after application, read-out: Visual Growth Reduction (%) 14 Days After Application, KCHSC

Row | Compound | pest or weed control at 140 g/ha
12 | COC(=O)c1nc(-c2ccc(I)cc2F)c(F)cc1Cl [F328, methyl 3-chloro-5-fluoro-6-(2-fluoro-4-iodophenyl)picolinate] | 0 to 29%
13 | O=C(O)c1nc(-c2ccc(C(F)(F)C(=O)O)cc2Cl)ccc1Cl [F180, 6-(4-(Carboxy-difluoromethyl)-2-chlorophenyl)-3-chloropicolinic acid] | 0 to 29%

Same assay, conditions: post-emergence, 336 h, ORYSA: rice (Oryza sativa), 140 g ai/ha, 14 days after application, read-out: Visual Growth Reduction (%) 14 Days After Application, ORYSA

Row | Compound | pest or weed control at 140 g/ha
14 | COC(=O)c1nc(-c2ccc(I)cc2F)c(F)cc1Cl [F328, methyl 3-chloro-5-fluoro-6-(2-fluoro-4-iodophenyl)picolinate] | 0 to 29%
15 | O=C(O)c1nc(-c2ccc(C(F)(F)C(=O)O)cc2Cl)ccc1Cl [F180, 6-(4-(Carboxy-difluoromethyl)-2-chlorophenyl)-3-chloropicolinic acid] | 0 to 29%

Same assay, conditions: post-emergence, 336 h, SETFA: giant foxtail (Setaria faberi), 140 g ai/ha, 14 days after application, read-out: Visual Growth Reduction (%) 14 Days After Application, SETFA

Row | Compound | pest or weed control at 140 g/ha
16 | COC(=O)c1nc(-c2ccc(I)cc2F)c(F)cc1Cl [F328, methyl 3-chloro-5-fluoro-6-(2-fluoro-4-iodophenyl)picolinate] | 30 to 44%
17 | O=C(O)c1nc(-c2ccc(C(F)(F)C(=O)O)cc2Cl)ccc1Cl [F180, 6-(4-(Carboxy-difluoromethyl)-2-chlorophenyl)-3-chloropicolinic acid] | 0 to 29%

Same assay, conditions: post-emergence, 336 h, SORVU: grain sorghum (Sorghum vulgare), 140 g ai/ha, 14 days after application, read-out: Visual Growth Reduction (%) 14 Days After Application, SORVU

Row | Compound | pest or weed control at 140 g/ha
18 | COC(=O)c1nc(-c2ccc(I)cc2F)c(F)cc1Cl [F328, methyl 3-chloro-5-fluoro-6-(2-fluoro-4-iodophenyl)picolinate] | 75 to 84%
19 | O=C(O)c1nc(-c2ccc(C(F)(F)C(=O)O)cc2Cl)ccc1Cl [F180, 6-(4-(Carboxy-difluoromethyl)-2-chlorophenyl)-3-chloropicolinic acid] | 0 to 29%

Same assay, conditions: post-emergence, 336 h, STEME: common chickweed (Stellaria media), 140 g ai/ha, 14 days after application, read-out: Visual Growth Reduction (%) 14 Days After Application, STEME

Row | Compound | pest or weed control at 140 g/ha
20 | COC(=O)c1nc(-c2ccc(I)cc2F)c(F)cc1Cl [F328, methyl 3-chloro-5-fluoro-6-(2-fluoro-4-iodophenyl)picolinate] | 0 to 29%
21 | O=C(O)c1nc(-c2ccc(C(F)(F)C(=O)O)cc2Cl)ccc1Cl [F180, 6-(4-(Carboxy-difluoromethyl)-2-chlorophenyl)-3-chloropicolinic acid] | 0 to 29%

Same assay, conditions: post-emergence, 336 h, TRZAS: wheat, spring (Triticum aestivum), 140 g ai/ha, 14 days after application, read-out: Visual Growth Reduction (%) 14 Days After Application, TRZAS

Row | Compound | pest or weed control at 140 g/ha
22 | COC(=O)c1nc(-c2ccc(I)cc2F)c(F)cc1Cl [F328, methyl 3-chloro-5-fluoro-6-(2-fluoro-4-iodophenyl)picolinate] | 0 to 29%
23 | O=C(O)c1nc(-c2ccc(C(F)(F)C(=O)O)cc2Cl)ccc1Cl [F180, 6-(4-(Carboxy-difluoromethyl)-2-chlorophenyl)-3-chloropicolinic acid] | 0 to 29%

Same assay, conditions: post-emergence, 336 h, blackgrass (Alopecurus myosuroides), 14 Days After Application, 140 g ai/ha, read-out: Visual Growth Reduction (%) ALOMY

Row | Compound | pest or weed control at 140 g/ha
24 | COC(=O)c1nc(-c2ccc(I)cc2F)c(F)cc1Cl [F328, methyl 3-chloro-5-fluoro-6-(2-fluoro-4-iodophenyl)picolinate] | 0 to 29%

Same assay, conditions: post-emergence, 336 h, canada thistle (Cirsium arvense), 14 Days After Application, 140 g ai/ha, read-out: Visual Growth Reduction (%) CIRAR

Row | Compound | pest or weed control at 140 g/ha
25 | COC(=O)c1nc(-c2ccc(I)cc2F)c(F)cc1Cl [F328, methyl 3-chloro-5-fluoro-6-(2-fluoro-4-iodophenyl)picolinate] | 0 to 29%

Same assay, conditions: post-emergence, 336 h, crabgrass (Digitaria sanguinalis), 14 Days After Application, 140 g ai/ha, read-out: Visual Growth Reduction (%) DIGSA

Row | Compound | pest or weed control at 140 g/ha
26 | COC(=O)c1nc(-c2ccc(I)cc2F)c(F)cc1Cl [F328, methyl 3-chloro-5-fluoro-6-(2-fluoro-4-iodophenyl)picolinate] | 75 to 84%

Same assay, conditions: post-emergence, 336 h, lambsquarters (Chenopodium album), 14 Days After Application, 140 g ai/ha, read-out: Visual Growth Reduction (%) CHEAL

Row | Compound | pest or weed control at 140 g/ha
27 | COC(=O)c1nc(-c2ccc(I)cc2F)c(F)cc1Cl [F328, methyl 3-chloro-5-fluoro-6-(2-fluoro-4-iodophenyl)picolinate] | 0 to 29%

Same assay, conditions: post-emergence, 336 h, redroot pigweed (Amaranthus retroflexus), 14 Days After Application, 140 g ai/ha, read-out: Visual Growth Reduction (%) AMARE

Row | Compound | pest or weed control at 140 g/ha
28 | COC(=O)c1nc(-c2ccc(I)cc2F)c(F)cc1Cl [F328, methyl 3-chloro-5-fluoro-6-(2-fluoro-4-iodophenyl)picolinate] | 30 to 44%

Same assay, conditions: post-emergence, 336 h, wild oat (Avena fatua), 14 Days After Application, 140 g ai/ha, read-out: Visual Growth Reduction (%) AVEFA

Row | Compound | pest or weed control at 140 g/ha
29 | COC(=O)c1nc(-c2ccc(I)cc2F)c(F)cc1Cl [F328, methyl 3-chloro-5-fluoro-6-(2-fluoro-4-iodophenyl)picolinate] | 0 to 29%

Same assay, conditions: post-emergence, 336 h, yellow nutsedge (Cyperus esculentus), 14 Days After Application, 140 g ai/ha, read-out: Visual Growth Reduction (%) CYPES

Row | Compound | pest or weed control at 140 g/ha
30 | COC(=O)c1nc(-c2ccc(I)cc2F)c(F)cc1Cl [F328, methyl 3-chloro-5-fluoro-6-(2-fluoro-4-iodophenyl)picolinate] | 0 to 29%
